± gives the standard deviation of the averaged measurements.
Key:
Assay in all cases: CTG-3D luminescence at 96 h relative to day-0 seeding control (ratio to day 0); higher = more growth / less cytotoxicity; PDxO 3D drug screen, 96 h, CTG-3D normalised to day-0 seeding control.
HCI-003.E2 = tested on: HCI-003.E2 (organoid from an ER-positive breast cancer xenograft)
HCI-005.E2 = tested on: HCI-005.E2 (organoid from a breast cancer xenograft with a HER2-positive history)
HCI-015 = tested on: HCI-015 (organoid from a triple-negative breast cancer xenograft)
HCI-016 = tested on: HCI-016 (organoid from a triple-negative breast cancer xenograft)
HCI-019 = tested on: HCI-019 (organoid from a triple-negative breast cancer xenograft)
HCI-025 = tested on: HCI-025 (organoid from a breast cancer xenograft)

NC(=O)Nc1cc(-c2cccc(F)c2)sc1C(=O)N[C@H]1CCCNC1 [AZD7762]
CTG-3D luminescence at 96 h
Conditions	12.5 pM	0.00025 µM	0.005 µM	0.1 µM	1 µM	10 µM	100 µM	625 fM
HCI-003.E2	2.21 ± 0.83	2.59 ± 0.73	1.96 ± 0.39	1.78 ± 0.39	1.12 ± 0.34	0.769 ± 0.16	0.0016 ± 0.0019	2.21 ± 0.14
HCI-005.E2	1.82 ± 0.58	1.75 ± 0.35	1.8 ± 0.53	1.6 ± 0.47	0.674 ± 0.13	0.164 ± 0.06	0.00356 ± 0.0034	1.95 ± 0.13

CTG-3D luminescence at 96 h
Conditions	12.5 pM	0.00025 µM	0.005 µM	0.1 µM	1 µM	10 µM	100 µM	625 fM
HCI-015, days in culture: 172	2.49	1.87	2.19	0.668	0.336	0.117	0.000941	2.32
HCI-015, days in culture: 191	1.83	1.42	1.11	0.566	0.248	0.12	-0.000313	1.28
HCI-015, days in culture: 218	1.16	1.65	1.65	0.692	0.211	0.102	-0.000297	1.59
HCI-016, days in culture: 153	3.14	1.64	2.54	0.266	0.0727	0.081	0.000259	2.62
HCI-016, days in culture: 172	2.35	1.91	1.78	0.194	0.0623	0.0531	-3.08e-05	1.66
HCI-016, days in culture: 190	1.53	1.19	1.71	0.131	0.0574	0.0481	0.00171	1.32
HCI-016, days in culture: 199	1.5	1.46	1.56	0.129	0.0407	0.0245	-0.00099	1.57
HCI-019, days in culture: 110	2.48	1.62	1.33	1.06	0.333	0.13	-0.000246	2.15
HCI-019, days in culture: 131	2.56	4.24	2.81	2.99	0.541	0.193	0.00562	4.04
HCI-019, days in culture: 152	1.82	2.74	2.11	1.11	0.437	0.149	0.00479	3.06
HCI-025, days in culture: 172	3.17	1.83	2.73	0.677	0.305	0.0747	-0.00404	2.61
HCI-025, days in culture: 209	1.54	2.2	1.92	0.713	0.29	0.0922	-0.00311	1.39
HCI-025, days in culture: 218	1.78	1.97	2.04	1.33	0.198	0.105	-0.00375	1.77

O=C(/C=C/c1cccnc1)NCCCCC1CCN(C(=O)c2ccccc2)CC1 [FK866]
CTG-3D luminescence at 96 h
Conditions	12.5 pM	0.00025 µM	0.005 µM	0.1 µM	1 µM	10 µM	100 µM	625 fM
HCI-003.E2	2.05 ± 0.6	2.19 ± 0.68	0.395 ± 0.15	0.38 ± 0.62	0.268 ± 0.47	0.302 ± 0.52	0.113 ± 0.1	1.51 ± 0.99
HCI-005.E2	1.39 ± 0.24	1.97 ± 0.33	1.39 ± 0.55	0.142 ± 0.22	0.135 ± 0.23	0.267 ± 0.47	0.166 ± 0.29	1.93 ± 0.57

CTG-3D luminescence at 96 h
Conditions	12.5 pM	0.00025 µM	0.005 µM	0.1 µM	1 µM	10 µM	100 µM	625 fM
HCI-015, days in culture: 172	2.55	0.705	0.752	0.206	0.213	0.158	0.29	2.38
HCI-015, days in culture: 191	2.04	1.32	0.805	0.141	0.243	0.167	0.215	1.64
HCI-015, days in culture: 218	1.79	1.55	0.648	0.169	0.147	0.133	0.158	1.86
HCI-016, days in culture: 153	2.99	0.401	0.569	0.026	0.0254	0.0134	0.0183	2.29
HCI-016, days in culture: 172	2.21	1.75	0.508	0.0341	0.0259	0.0131	0.022	1.55
HCI-016, days in culture: 190	1.78	1.44	0.967	0.0245	0.0257	0.0168	0.037	1.08
HCI-016, days in culture: 199	1.45	1.44	0.503	0.0273	0.0129	0.013	0.0134	1.79
HCI-019, days in culture: 110	2.11	0.4	0.0804	0.0554	0.0484	0.0475	0.042	2.64
HCI-019, days in culture: 131	1.91	1.42	0.669	0.542	0.448	0.436	0.137	3.64
HCI-019, days in culture: 152	1.88	1.08	0.557	0.476	0.267	0.142	0.0796	1.93
HCI-025, days in culture: 172	3.12	0.0766	0.075	0.0447	0.0404	0.0184	-0.00051	2.06
HCI-025, days in culture: 209	2.08	1.82	0.314	0.0825	0.0624	0.0413	0.0255	2.16
HCI-025, days in culture: 218	1.78	2.01	0.0772	0.031	0.013	0.00874	0.00784	1.85

CCc1c2c(nc3ccc(O)cc13)-c1cc3c(c(=O)n1C2)COC(=O)[C@]3(O)CC [SN-38]
CTG-3D luminescence at 96 h
Conditions	12.5 pM	0.00025 µM	0.005 µM	0.1 µM	1 µM	10 µM	100 µM	625 fM
HCI-003.E2	2.07 ± 0.86	2.06 ± 0.55	1.68 ± 0.41	1.64 ± 0.19	1.24 ± 0.17	0.339 ± 0.13	0.213 ± 0.061	1.94 ± 0.31
HCI-005.E2	1.65 ± 0.44	1.65 ± 0.42	1.41 ± 0.21	1.38 ± 0.29	1.17 ± 0.038	0.21 ± 0.15	0.199 ± 0.13	1.65 ± 0.18

CTG-3D luminescence at 96 h
Conditions	12.5 pM	0.00025 µM	0.005 µM	0.1 µM	1 µM	10 µM	100 µM	625 fM
HCI-015, days in culture: 172	2.31	1.87	1.68	0.173	0.101	0.0365	0.0336	2.79
HCI-015, days in culture: 191	1.52	1.32	0.538	0.0896	0.0635	0.0399	0.0305	1.5
HCI-015, days in culture: 218	2.35	1.74	1.05	0.109	0.0491	0.0388	0.0388	1.97
HCI-016, days in culture: 153	2.8	1.73	1.68	0.253	0.0495	0.0432	0.0259	2.02
HCI-016, days in culture: 172	2.16	2.11	1.21	0.157	0.0512	0.021	0.019	1.22
HCI-016, days in culture: 190	1.83	1.12	1.17	0.151	0.0473	0.0272	0.0195	1.25
HCI-016, days in culture: 199	1.87	1.62	1.36	0.126	0.0472	0.0229	0.0167	1.92
HCI-019, days in culture: 110	1.82	1.78	0.471	0.295	0.238	0.127	0.0625	2.53
HCI-019, days in culture: 131	3.04	2.79	0.948	0.312	0.308	0.107	0.169	3.56
HCI-019, days in culture: 152	3.21	3.38	1.51	0.48	0.521	0.106	0.0856	2.26
HCI-025, days in culture: 172	3.42	1.7	2.12	0.486	0.295	0.0768	0.0418	2.35
HCI-025, days in culture: 209	1.97	2.36	1.12	0.295	0.181	0.0722	0.0384	1.53
HCI-025, days in culture: 218	1.5	1.73	0.75	0.244	0.0898	0.0616	0.0407	1.53

— the supplement of paper PMC8882468
